The text below walks through data of ChEMBL document CHEMBL1138598, “Interactions of curcumin with the PfATP6 model and the implications for its antimalarial mechanism” (Bioorg Med Chem Lett, 2009).

Assay [1] can be described thus: Binding affinity to Plasmodium falciparum ATPase6.
Assay [2] can be described thus: Inhibition of Plasmodium falciparum ATPase6 expressed in Xenopus oocytes. In kind it is cell-based. Conditions: oocyte.
A further assay has as its system Plasmodium falciparum. Briefly: Antimalarial activity against chloroquine-resistant Plasmodium falciparum FCK by [3H]hypoxanthine uptake. In kind it is functional, organism-based.

The molecule `COc1cc(/C=C/C(=O)CC(=O)/C=C/c2ccc(O)c(OC)c2)ccc1O` (stereo in doubt; form 1) [CURCUMIN] registered a Kd in assay [1] of 1.15 µM.

For `COc1cc(/C=C/C(=O)CC(=O)/C=C/c2ccc(O)c(OC)c2)ccc1O` (stereo in doubt; form 2) [CURCUMIN], the dissociation constant (Kd) in assay [1] was 2.45 µM.

As to `C[C@@H]1CC[C@H]2[C@@H](C)C(=O)O[C@@H]3O[C@@]4(C)CC[C@@H]1[C@]32OO4` [ARTEMISININ], the Kd in assay [2] was determined as 0.15 µM. The molecule also returned an IC50 in the assay on Plasmodium falciparum of 0.045 µM.

Regarding `COc1cc(/C=C/C(=O)CC(=O)/C=C/c2ccc(O)c(OC)c2)ccc1O` [CURCUMIN], in the assay on Plasmodium falciparum, the 50% inhibitory concentration (IC50) was 15 µM.

For orientation: Kd means the constant that tells how readily two partners part at equilibrium. A word on the IC50: it is the concentration that inhibits the measured activity by half. Low values mean inhibition by little substance, high ones a need for much substance.
